Where two headings read alike, the source gives them in different places.
Columns and labels:
[1] = background statement; cited from earlier work
[2] = Approximate solubility in various solvents at ambient temperature (aliquot addition, visual observation); format: physicochemical; settings: for solubility: ambient temperature
Experimental: Aliquots of various solvents were added to measured amounts of a Form I with agitation (typically sonication) at ambient temperature until complete dissolution was achieved, as judged by visual observation. If dissolution occurred after the addition of the first aliquot, values are reported as “>”.

[3] = pH of aqueous solution using pH test strips; format: physicochemical; settings: 10 mg/mL aqueous solution
[4] = Dynamic Vapor Sorption (DVS); format: physicochemical; settings: for Post-DVS crystalline form: XRPD of post-DVS solids
Experimental: Dynamic vapor sorption data were collected on a Surface Measurement System DVS Intrinsic instrument.
Samples were not dried prior to analysis. Sorption and desorption data were collected over a range from 5% to 95% RH at 10% RH increments under a nitrogen purge. The equilibrium criterion used for analysis was less than 0.0100% weight change in 5 minutes with a maximum equilibration time of 3 hours. Data were not corrected for the initial moisture content of the samples.

[5] = Particle size distribution (PSD); format: physicochemical
[6] = Dry milling, effect on crystallinity (XRPD); format: physicochemical; settings: 30 Hz for 3×10 minutes
Experimental: A dry milling experiment was conducted to investigate the effect on crystallinity.

[7] = Stable form screen from slurries in organic solvent (state by XRPD); format: physicochemical
[8] = Stable form screen from slurries in aqueous/organic mixtures at room temperature for 7 days (state by XRPD); format: physicochemical; settings: RT
[9] = Heating by DSC from RT to 200° C. and cooling to RT, XRPD of treated sample; format: physicochemical; settings: cooled down to RT
Experimental: An (R)-MDMA HCl Form 1 sample was heated by DSC from RT to 200° C. and cooled down to RT.

[10] = Stable form and polymorph screen, twenty-nine experiments (XRPD); format: physicochemical; settings: all samples of Example 3, XRPD
[11] = Relative humidity stressing (state by XRPD); settings: for Observations after RH stressing / State after RH stressing: 6 d

CNC(C)Cc1ccc2c(c1)OCO2.Cl (racemic) [hydrochloride salt of racemic MDMA]
Solubility in water (in words) [1]: soluble in water

CNC(C)Cc1ccc2c(c1)OCO2 (stereo not drawn) [MDMA, 3,4-Methylenedioxymethamphetamine]
Solubility in water (in words) [1]: insoluble in water

CN[C@H](C)Cc1ccc2c(c1)OCO2.Cl [R-MDMA HCl Form I, (R)-3,4-methylenedioxymethamphetamine HCl]
Approximate solubility at RT (in words) ([2]; ACN, DCM, and most alcohols, listed as R-MDMA HCl Form 1, HCl): good solubility in ACN, DCM, and most alcohols
solubility ([2]; Water, listed as R-MDMA HCl Form 1, HCl): >110000 µg/mL
Approximate solubility at RT (in words) ([2]; aqueous environments, HCl): The compound exhibited high solubility in aqueous environments,
Approximate solubility at RT (in words) ([2]; aqueous environments, listed as R-MDMA HCl Form 1, HCl): high solubility in aqueous environments
Approximate solubility at RT (in words) ([2]; most organic solvents tested, HCl): Lower solubility was observed in most organic solvents tested.
Approximate solubility at RT (in words) ([2]; most organic solvents tested, listed as R-MDMA HCl Form 1, HCl): Lower solubility was observed in most organic solvents tested
solubility ([2]; organic solvent or mixture, thermodynamic from solid, 1-BuOH, read-out: Solubility): 3000 µg/mL
solubility ([2]; organic solvent or mixture, thermodynamic from solid, 90:10 Acetone/Water, read-out: Solubility): > 76000 µg/mL
solubility ([2]; organic solvent or mixture, thermodynamic from solid, Acetone, read-out: Solubility): < 1000 µg/mL
solubility ([2]; organic solvent or mixture, thermodynamic from solid, CAN, read-out: Solubility): 7000 µg/mL
solubility ([2]; organic solvent or mixture, thermodynamic from solid, DCM, read-out: Solubility): 16000 µg/mL
solubility ([2]; organic solvent or mixture, thermodynamic from solid, EtOAc, read-out: Solubility): < 1000 µg/mL
solubility ([2]; organic solvent or mixture, thermodynamic from solid, EtOH, read-out: Solubility): 25000 µg/mL
solubility ([2]; organic solvent or mixture, thermodynamic from solid, Heptane, read-out: Solubility): < 1000 µg/mL
solubility ([2]; organic solvent or mixture, thermodynamic from solid, IPA, read-out: Solubility): 6000 µg/mL
solubility ([2]; organic solvent or mixture, thermodynamic from solid, MTBE, read-out: Solubility): < 1000 µg/mL
solubility ([2]; organic solvent or mixture, thermodynamic from solid, MeOH, read-out: Solubility): > 114000 µg/mL
solubility ([2]; organic solvent or mixture, thermodynamic from solid, MeOH/MTBE (5:95), read-out: Solubility): < 1000 µg/mL
solubility ([2]; organic solvent or mixture, thermodynamic from solid, MeOH/MTBE (10:90), read-out: Solubility): < 2000 µg/mL
solubility ([2]; organic solvent or mixture, thermodynamic from solid, MeOH/MTBE (20:80), read-out: Solubility): 3000 µg/mL
solubility ([2]; organic solvent or mixture, thermodynamic from solid, THF, read-out: Solubility): < 1000 µg/mL
solubility ([2]; organic solvent or mixture, thermodynamic from solid, p-dioxane, read-out: Solubility): < 1000 µg/mL
solubility ([2]; organic solvent or mixture, thermodynamic from solid, t-BuOH, read-out: Solubility): 1000 µg/mL
solubility ([2]; thermodynamic from solid, Water, read-out: Solubility): > 110000 µg/mL
pH of aqueous solution [3]: pH of a 10 mg/mL aqueous solution is approximately 6 using pH test
Water sorbed, equivalent moles ([4]; 5-85% RH): 0.04 moles water
DVS wt. gain ([4]; 5-85% RH, sorption, HCl): 0.28% wt. gain 5-85% RH
DVS wt. gain ([4]; 5-85% RH, sorption, listed as (R)-MDMA HCl Form I, HCl): 0.28%
DVS weight gain ([4]; 5-95% RH, sorption, listed as (R)-3,4-methylenedioxymethamphetamine HCl Form I, HCl): 5.28±0.02%
DVS wt. loss ([4]; 85-5% RH, desorption): 0.51% wt. loss 85-5% RH
Water sorbed, equivalent moles ([4]; 85-95% RH, per mole of salt): 0.7 mol water
DVS wt. gain ([4]; 85-95% RH, sorption): 5.00%
DVS weight loss ([4]; 95-5% RH, desorption, listed as (R)-3,4-methylenedioxymethamphetamine HCl Form I, HCl): 5.35±0.02%
DVS wt. loss ([4]; 95-85% RH, desorption): 4.84% wt. loss 95-85% RH
Post-DVS crystalline form ([4]; HCl): Post-DVS crystalline form was found to be Form I
Post-DVS crystalline form ([4]; listed as (R)-MDMA HCl Form I, HCl): consistent with Form I
Hygroscopicity (in words) ([4]; between 5% and 85% RH): low hygroscopicity
Hygroscopicity (in words) ([4]; between 85% and 95% RH): Significant hygroscopicity
Hysteresis on desorption ([4]; desorption 95-5% RH): virtually no hysteresis
PSD d10 [5]: 5.10 μm
PSD d50 [5]: 19.2 μm
PSD d90 [5]: 48.8 μm
State after dry milling [6]: Form I with no apparent decrease in crystallinity
State after slurry ([7]; 1-BuOH, RT, 14 d): Form I
State after slurry ([7]; 90:10 EtOAc/MeOH, RT, 14 d): Form I
State after slurry ([7]; ACN, RT, 14 d): Form I
State after slurry ([7]; DCM, RT, 14 d): Form I
State after slurry ([7]; EtOH, RT, 14 d): Form I
State after slurry ([7]; IPA, RT, 14 d): Form I
State after slurry ([7]; IPA, ~5° C., 14 d): Form I
State after slurry ([7]; MeOH/MTBE (10:90), RT, 5 d): Form I
State after slurry ([7]; t-BuOH, ~75° C., 7 d): Form I
State after slurry ([8]; THF/water 98:2 (aw 0.38)): Form I
State after slurry ([8]; acetone/water 98:2 (aw 0.35)): Form I
State after slurry ([8]; p-dioxane/water 95:5 (aw 0.40)): Form I
Crystalline state after heating [9]: Form I crystalline state
Form found in stable form and polymorph screen [10]: Form I was formed in each case
Observations after RH stressing ([11]; 75% RH): free-flowing solids, B/E
State after RH stressing ([11]; 75% RH): Form I
Observations after RH stressing ([11]; 90% RH): mostly free-flowing solids, some clumps,
State after RH stressing ([11]; 90% RH): Form I
Physical stability upon stressing ([11]; 97% RH for 6 days): exhibits physical stability
Observations after RH stressing ([11]; 97% RH): off-white fines, B/E, some deliquesence
State after RH stressing ([11]; 97% RH): Form I, PO

— patent US12492178B2, “Stable polymorph of R-MDMA HCl” (EMPATHBIO, INC., priority 2021, dated 2025)
